These results are taken from patent US20260284011A1, “COMPOUNDS FOR RESTORING SUSCEPTIBILITY TO BETA-LACTAM ANTIBIOTICS” (UNIVERSITY OF NOTRE DAME DU LAC, priority 2023, published 2026).

The test system of assay [1] is various MRSA strains (NRS21, NRS70, NRS382, NRS404, HFH29568, HFH30495). Description: Time-kill assays (FIG. 6). The format is cell-based, Staphylococcus aureus. The conditions noted are these: at 24 h. The procedure:
Time-kill assay. MRSA strains (NRS21, NRS70, NRS382, NRS404, HFH 29568, and HFH 30495) were grown overnight on tryptic soy agar plate. Bacteria were diluted in Muller-Hinton broth containing 2% NaCl to […] CFU·mL^−1. […] For MEM and CPT, cation-adjusted Muller-Hinton broth without 2% NaCl was used. Aliquots were taken at 0, 3, 6, 9, 12, and 24 h and were diluted serially for bacterial counts. The assay was done in triplicate.

The test system of assay [2] is HFH 29568, MRSA, USA300 clone, SCCmec IV, bla +. Description: MIC determination and potentiation assay (microdilution broth). The format is cell-based. The conditions noted are these: Staphylococcus aureus; HFH 29568; agent alone; read-out: MIC. As to the method: (§1) MICs were determined by the microdilution broth method following the Clinical & Laboratory Standards Institute (CLSI) guidelines. […] Experiments were performed in triplicate in 96-well plates with 5×10^5 CFU·mL^−1 of bacteria. […] The MIC was the concentration for which bacterial growth was not observed.
A general note: Dilution methods test growth across graded concentrations, often in twofold steps.

For assay [3], the system named is CA-347 (NRS648), MRSA, SCCmec II, bla +. Described as above. The format is cell-based. The settings on record: Staphylococcus aureus; CA-347 (NRS648); agent alone; read-out: MIC. As to the method: as §1
The test system of assay [4] is N315 (NRS70), MRSA, SCCmec II, bla +. Described as above. Format: cell-based. The settings on record: Staphylococcus aureus; N315 (NRS70); agent alone; read-out: MIC. As to the method: as §1
For assay [5], the system named is CM05, MRSA, SCCmec I, bla +. The assay is described as above. The format is cell-based. The settings on record: Staphylococcus aureus. The procedure:
as §1

The test system of assay [6] is USA300-0114 (NRS384), MRSA, SCCmec IV, bla +. The description is as above. The conditions noted are these: Staphylococcus aureus; USA300-0114 (NRS384); agent alone; read-out: MIC. Format: cell-based. The procedure: as §1
Assay [7] concerns SR4035, MRSA, SCCmec IV, bla +. The assay is described as above. The settings on record: Staphylococcus aureus, SR4035, agent alone, read-out: MIC. Format: cell-based. As to the method:
as §1

The test system of assay [8] is HT 20020320 (NRS245), MRSA, SCCmec IV, bla +. The assay is described as above. The settings on record: Staphylococcus aureus; HT 20020320 (NRS245); agent alone; read-out: MIC. Format: cell-based. As to the method:
as §1

In assay [9] the test system is HIP06297 (NRS17), MRSA, SCCmec II, bla +. The description is as above. The conditions noted are these: Staphylococcus aureus; HIP06297 (NRS17); agent alone; read-out: MIC. The format is cell-based. The procedure: as §1
For assay [10], the system named is HI049, MRSA, USA300 clone, SCCmec IV, bla +. The description is as above. The settings on record: Staphylococcus aureus, agent alone. Format: cell-based. The procedure: as §1
Assay [11] relates to FPR3757, MRSA, USA300 clone, SCCmec IV, bla +. Described as above. The conditions noted are these: Staphylococcus aureus; FPR3757; agent alone; read-out: MIC. The format is cell-based. The procedure:
as §1

In assay [12] the test system is MW2 (NRS123), MRSA, SCCmec IV, bla +. The description is as above. The format is cell-based. The settings on record: Staphylococcus aureus; MW2 (NRS123); agent alone; read-out: MIC. As to the method: as §1
The subject of assay [13] is H2138 (NRS271), MRSA, SCCmec IV, bla +. The description is as above. The conditions noted are these: Staphylococcus aureus; H2138 (NRS271); agent alone; read-out: MIC. Format: cell-based. The procedure: as §1
In assay [14] the test system is M1712 (NRS127), MRSA, SCCmec II, bla +. The description is as above. The format is cell-based. The conditions noted are these: Staphylococcus aureus; M1712 (NRS127); agent alone; read-out: MIC. As to the method:
as §1

Assay [15] has as its system HIP5836 (NRS4), MRSA/VISA, SCCmec II, bla +. The description is as above. Format: cell-based. The settings on record: Staphylococcus aureus, agent alone. The procedure:
as §1

For assay [16], the system named is CO-34 (NRS662), MRSA, SCCmec IV, bla +. Described as above. The conditions noted are these: Staphylococcus aureus; CO-34 (NRS662); agent alone; read-out: MIC. The format is cell-based. The procedure: as §1
Assay [17] deals with HIP15178 (VRS5), MRSA/VRSA, SCCmec II, bla +. The description is as above. Format: cell-based, Staphylococcus aureus. The conditions noted are these: Staphylococcus aureus; HIP15178 (VRS5); agent alone; read-out: MIC. As to the method: as §1
The test system of assay [18] is HIP 133170 (VRS3a), MRSA/VRSA, SCCmec IV, bla +. The assay is described as above. The conditions noted are these: Staphylococcus aureus; HIP 133170 (VRS3a); agent alone; read-out: MIC. The format is cell-based, Staphylococcus aureus. As to the method: as §1
Another assay relates to ATCC 29213, MSSA, bla +. Described as above. The conditions noted are these: Staphylococcus aureus; ATCC 29213; agent alone; read-out: MIC. The format is cell-based, Staphylococcus aureus. The procedure: as §1
Assay [19] concerns JE2, MRSA, SCCmec IV, bla −. The assay is described as above. Format: cell-based, Staphylococcus aureus. The conditions noted are these: Staphylococcus aureus, MRSA, agent alone. As to the method: as §1
In assay [20] the test system is HIP07920 (NRS21), MRSA/VISA, SCCmec IV, bla +. The description is as above. The conditions noted are these: Staphylococcus aureus; HIP07920 (NRS21); agent alone. Format: cell-based, Staphylococcus aureus. As to the method: as §1
Assay [21] has as its system LIM2 (NRS36), MRSA, SCCmec I, bla +. The assay is described as above. The format is cell-based, Staphylococcus aureus. The conditions noted are these: Staphylococcus aureus; LIM2 (NRS36); agent alone; read-out: MIC. As to the method:
as §1

The subject of assay [22] is COL (NRS100), MRSA, SCCmec I, bla −. The description is as above. The settings on record: Staphylococcus aureus; COL (NRS100); agent alone; read-out: MIC. Format: cell-based, Staphylococcus aureus. The procedure: as §1
Assay [23] deals with NTCT 8325 (NRS77), MSSA, bla −. The assay is described as above. Format: cell-based, Staphylococcus aureus. The conditions noted are these: Staphylococcus aureus; NTCT 8325 (NRS77); agent alone; read-out: MIC. As to the method: as §1

One may read the MIC as the lowest concentration that inhibits growth of the organism. Consider `C[C@@H](O)[C@H]1C(=O)N2C(C(=O)O)=C(S[C@@H]3CN[C@H](C(=O)N(C)C)C3)[C@H](C)[C@H]12` [MEM, meropenem], for which the “reduction in bacterial growth by itself” value in assay [1] is on record as “Neither OXA, MEM, CPT, or compound 4 by itself showed reduction in bacterial growth”. Also, the MIC in assay [2] is 16 µg/mL; in assay [3], 16 µg/mL; in assay [4], 16 µg/mL; in assay [5], > 32 µg/mL; in assay [6], 4 µg/mL; in assay [7] it was 16 µg/mL. For the same molecule, the MIC in assay [8] was determined as 8 µg/mL; in assay [9] it was 4 µg/mL; in assay [10] it was 8 µg/mL; in assay [11], 4 µg/mL; in assay [12], 4 µg/mL; in [13] it was 16 µg/mL. Moreover, the MIC in assay [14] came to 16 µg/mL; in [15] it was 8 µg/mL; in assay [16] it was 8 µg/mL; in [17] it was 8 µg/mL; in assay [18], 16 µg/mL; in the assay on ATCC 29213, MSSA, bla +, 0.13 µg/mL. Further, the MIC was 4 µg/mL in assay [19]; 8 µg/mL in assay [20]; 8 µg/mL in assay [21]; 16 µg/mL in assay [22]; 0.13 µg/mL in assay [23].
